Data as given in patent publication US20240124451A1, “PHTHALAZINE DERIVATIVES USEFUL AS INHIBITORS OF NOD-LIKE RECEPTOR PROTEIN 3” (Merck Sharp & Dohme LLC, priority 2022, published 2024).

Biological target: T1, NLRP3 inflammasome (Homo sapiens, UniProt Q96P20)
T1 construct: host or cells: THP-1 human monocytic cells, PMA-treated, stimulated with gramicidin
Assay: ASC-SPECK formation in THP-1 cells after gramicidin stimulation (NLRP3 inflammasome activation)
Assay type: cell-based
Conditions: PMA-treated human monocytic THP-1 cells, compound 1 h before 12.5 ug/ml gramicidin, 3 h, ASC SPECK imaging; read-out: EC50 (nM) for Examples that inhibit NLRP3 inflammasome activation
Protocol: The ability of compounds to inhibit NLRP3 inflammasome activation was determined in vitro by monitoring formation of the ASC-SPECK in human monocytic THP-1 cells after stimulation. THP-1 cells (ATCC catalog #TIB-202) were maintained in complete growth media containing Roswell Park Memorial Institute RPMI (ATCC catalog #30-2001), 10% heat inactivated fetal bovine serum, 1× penicillin/streptomycin and 0.05 mM 2-mercaptoethanol. At the start of the assay, undifferentiated THP-1 cells were plated at a density of 20,000 cells per well in a 384-well plate (Poly-D-lysine coated Cell Carrier Ultra microplate, Perkin Elmer catalog #6057500) in complete growth media supplemented with 10 ng/ml phorbol 12-myristate 13-acetate (PMA; Sigma catalog #P8139), and then incubated overnight. The next day, media was replaced with assay media [RPMI (Gibco catalog #11875-093), 0.01% bovine serum albumin (BSA)]. Compounds were serially diluted in DMSO and then added to wells one hour prior to the addition of 12.5 ug/ml Gramicidin (Enzo Lifescience, catalog #ALX-350-233-M005). All incubations were carried out at 37° C. (5% CO2/95% air). Following a 3-hour treatment with gramicidin, cells are fixed with 4% paraformaldehyde and stored at 4° C. until immunofluorescence staining.
Immunofluorescence staining: Anti-ASC antibody (MBL catalog #D086-3) was desalted and labeled with Alexa 488 antibody labeling kit (Thermo catalog #A20181) prior to use as described below. After fixation, the following steps were carried out at room temperature. Cells were first permeabilized with 0.3% Triton X-100 in phosphate-buffered saline (PBS) for 15 minutes and then incubated in blocking buffer containing 5% goat serum, 0.3% tween-20 and 0.03% sodium azide in PBS for 1 hour. Cells were stained with a mixture of ASC-Alexa 488 antibody (diluted 1:200 in blocking buffer) and nuclear stain DRAQ5 (1:5000 in blocking buffer, Thermo catalog #62251) in blocking buffer for 1 hour. Following a wash with 0.3% Tween-20 in PBS, plates were imaged with an Opera Phenix High Content Screening System. The number of DRAQ5 positive cells containing ASC SPECKS were quantified in each well.
Data analysis: EC50 values were calculated by standard curve-fitting analysis using an internally developed program in TIBCO Spotfire software.

T1 sequence (Q96P20 whole entry): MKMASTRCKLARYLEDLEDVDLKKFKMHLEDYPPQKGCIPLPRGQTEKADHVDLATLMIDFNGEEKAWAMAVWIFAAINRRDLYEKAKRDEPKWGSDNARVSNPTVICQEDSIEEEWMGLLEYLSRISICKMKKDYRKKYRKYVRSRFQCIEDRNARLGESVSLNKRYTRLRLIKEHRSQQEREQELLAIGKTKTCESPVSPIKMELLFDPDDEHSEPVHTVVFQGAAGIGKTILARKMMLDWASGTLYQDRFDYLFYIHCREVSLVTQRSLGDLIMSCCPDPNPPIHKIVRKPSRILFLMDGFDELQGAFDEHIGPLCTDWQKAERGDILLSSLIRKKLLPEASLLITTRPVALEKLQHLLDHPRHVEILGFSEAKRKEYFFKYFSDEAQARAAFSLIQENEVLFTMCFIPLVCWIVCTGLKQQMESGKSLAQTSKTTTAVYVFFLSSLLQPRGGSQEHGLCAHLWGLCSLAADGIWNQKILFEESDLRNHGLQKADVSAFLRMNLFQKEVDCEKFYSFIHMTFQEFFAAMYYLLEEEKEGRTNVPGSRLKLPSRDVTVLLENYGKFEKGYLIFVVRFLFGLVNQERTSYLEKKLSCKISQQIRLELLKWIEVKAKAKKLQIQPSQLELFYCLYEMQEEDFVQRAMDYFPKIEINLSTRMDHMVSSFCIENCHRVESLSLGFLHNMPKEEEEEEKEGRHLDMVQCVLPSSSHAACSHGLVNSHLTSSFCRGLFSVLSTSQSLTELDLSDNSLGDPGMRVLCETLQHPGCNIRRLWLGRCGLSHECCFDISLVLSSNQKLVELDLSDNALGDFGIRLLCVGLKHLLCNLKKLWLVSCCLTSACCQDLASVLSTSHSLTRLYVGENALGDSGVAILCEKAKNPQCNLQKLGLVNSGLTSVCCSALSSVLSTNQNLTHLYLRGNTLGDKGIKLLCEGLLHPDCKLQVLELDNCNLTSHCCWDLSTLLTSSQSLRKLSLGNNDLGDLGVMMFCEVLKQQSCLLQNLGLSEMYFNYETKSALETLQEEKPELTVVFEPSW

| SMILES | EC50 |
| --- | --- |
| Oc1cc(C(F)(F)F)ccc1-c1nnc(N2CCC3(CCCO3)C2)c2ncccc12 (racemic) [Example 29, (R and S)-2-(8-(1-oxa-7-azaspiro[4.4]nonan-7-yl)pyrido[2,3-d]pyridazin-5-yl)-5-(trifluoromethyl)phenol] | 353 nM |
| CCC1(O)CCN(c2nnc(-c3ccc(C(F)(F)F)cc3O)c3cccnc23)C1 (racemic) [Example 47, (R and S)-3-ethyl-1-(5-(2-hydroxy-4-(trifluoromethyl)phenyl)pyrido [2,3-d]pyridazin-8-yl)pyrrolidin-3-ol] | 494 nM |
| C[C@@H]1CN(c2nnc(-c3ccc(C(F)(F)F)cc3O)c3cnccc23)C[C@H](C)[C@]1(C)O [Example 17, (3S,4s,5R)-1-(4-(2-hydroxy-4-(trifluoromethyl)phenyl)pyrido[3,4-d]pyridazin-1-yl)-3,4,5-trimethylpiperidin-4-ol] | 201 nM |
| CC(=O)N1CCC2(CCN(c3nnc(-c4ccc(C(F)(F)F)cc4O)c4cccnc34)CC2)C1 [Example 35, 1-(8-(5-(2-hydroxy-4-(trifluoromethyl)phenyl)pyrido [2,3-d]pyridazin-8-yl)-2,8-diazaspiro[4.5]decan-2-yl)ethan-1-one] | 420 nM |
| C[C@]1(O)CCN(c2nnc(-c3ccc(C(F)(F)F)cc3O)c3cc(C(F)F)cnc23)C1 [Example 57] | 1570 nM |
| C[C@@H]1CN(c2nnc(-c3ccc4occc4c3)c3ccncc23)C[C@H](C)O1 [Example 11, (cis)-4-(1-(benzofuran-5-yl)pyrido[3,4-d]pyridazin-4-yl)-2,6-dimethylmorpholine] | 750 nM |
| CN(C)CC1(O)CCN(c2nnc(-c3ccc(C(F)(F)F)cc3O)c3cccnc23)C1 (racemic) [Example 46, (R and S)-3-((dimethylamino)methyl)-1-(5-(2-hydroxy-4-(trifluoromethyl)phenyl)pyrido [2,3-d]pyridazin-8-yl)pyrrolidin-3-ol] | 831 nM |
| C[C@@H]1CN(c2nnc(-c3ccc(C(F)(F)F)cc3O)c3cnncc23)C[C@H](C)O1 [Example 9, 2-(4-((cis)-2,6-dimethylmorpholino)pyridazino[4,5-d]pyridazin-1-yl)-5-(trifluoromethyl)phenol] | 80 nM |
| Cc1cc(C(F)(F)F)ccc1-c1nnc([C@H]2C[C@@H](C)O[C@@H](C)C2)c2ccccc12 [Example 53, 1-((2R,4r,6S)-2,6-dimethyltetrahydro-2H-pyran-4-yl)-4-(2-methyl-4-(trifluoromethyl)phenyl)phthalazine] | 3970 nM |

Further molecules by falling EC50, results first:

| EC50 | SMILES |
| --- | --- |
| 1850 nM | C[C@@H]1CN(c2nnc(-c3ccc(C(F)(F)F)cc3O)c3ncccc23)C[C@H](C)O1 [Example 6, 2-(5-((cis)-2,6-dimethylmorpholino)pyrido[2,3-d]pyridazin-8-yl)-5-(trifluoromethyl)phenol] |
| 1100 nM | C[C@@H]1C[C@](O)(c2nnc(-c3ccc(C(F)(F)F)cc3O)c3cccnc23)C[C@H](C)O1 [Example 54, (2R,4s,6S)-4-(5-(2-hydroxy-4-(trifluoromethyl)phenyl)pyrido[2,3-d]-pyridazin-8-yl)-2,6-dimethyltetrahydro-2H-pyran-4-ol] |
| 148 nM | O=C1NC2(CCN(c3nnc(-c4ccc(C(F)(F)F)cc4O)c4cccnc34)CC2)CO1 [Example 25, 8-(5-(2-hydroxy-4-(trifluoromethyl)phenyl)pyrido [2,3-d]pyridazin-8-yl)-3-oxa-1,8-diazaspiro[4.5]decan-2-one] |
| 96 nM | C[C@@H]1CN(c2nnc(-c3ccc(C(F)(F)F)cc3O)c3cccnc23)C[C@H](C)S1(=O)=O [Example 26, (cis)-4-(5-(2-hydroxy-4-(trifluoromethyl)phenyl)pyrido [2,3-d]pyridazin-8-yl)-2,6-dimethylthiomorpholine 1,1-dioxide] |
| 65 nM | CC1CN(c2nnc(-c3ccc(C(F)(F)F)cc3O)c3cccnc23)CC(CO)O1 (single isomer, unassigned) [Example 51, 2-(8-((2R,6R or 2S,6S)-2-(hydroxymethyl)-6-methylmorpholino)pyrido[2,3-d]pyridazin-5-yl)-5-(trifluoromethyl) phenol] |
